pIC50: −log10 of the molar value.
Legend:
[1] = target: T1, Recombinant human PI3Kγ (full length human PI3K p110γ) (Homo sapiens, UniProt P48736); assay: Kinase assay of PI3Kγ (solid-phase lipid kinase assay); assay type: biochemical; conditions: activity class of IC50; read-out: In vitro PI3K-γ inhibitory activity
T1 construct: full length human PI3K p110γ fused with a His6-tag at the C-terminus; His6 (C); purchased ALEXIS BIOCHEMICALS #201-055-C010; host or cells: S. frugiperda 9 insect cells

[2] = target: PI3Kβ (heterocomplex of p110β and GST-p85α) (UniProt Q9Z1L0); assay: Isozyme selectivity test: kinase assay of PI3Kβ; assay type: biochemical; conditions: activity class of IC50; read-out: In vitro PI3K-β inhibitory activity
Description: [Isozyme Selectivity Test in PI3K]
{Determination of IC50 Values of Compounds in Kinase Assay of PI3Kβ}
Recombinant baculovirus of PI3Kβ p110β and GST-p85α were obtained from Dr. Katada (University of Tokyo). Recombinant PI3K heterocomplex of p110β and GST-p85α were co-expressed in insect cells according to manufacture's instruction (Pharmingen, San Diego, Calif.), and purified with glutathione affinity column. Kinase assay of PI3Kβ was prepared in a similar manner as described in the part of [Determination of IC50 values of compounds in kinase assay of PI3Kγ].

T1 sequence (P48736 whole entry, the tested form may be a part): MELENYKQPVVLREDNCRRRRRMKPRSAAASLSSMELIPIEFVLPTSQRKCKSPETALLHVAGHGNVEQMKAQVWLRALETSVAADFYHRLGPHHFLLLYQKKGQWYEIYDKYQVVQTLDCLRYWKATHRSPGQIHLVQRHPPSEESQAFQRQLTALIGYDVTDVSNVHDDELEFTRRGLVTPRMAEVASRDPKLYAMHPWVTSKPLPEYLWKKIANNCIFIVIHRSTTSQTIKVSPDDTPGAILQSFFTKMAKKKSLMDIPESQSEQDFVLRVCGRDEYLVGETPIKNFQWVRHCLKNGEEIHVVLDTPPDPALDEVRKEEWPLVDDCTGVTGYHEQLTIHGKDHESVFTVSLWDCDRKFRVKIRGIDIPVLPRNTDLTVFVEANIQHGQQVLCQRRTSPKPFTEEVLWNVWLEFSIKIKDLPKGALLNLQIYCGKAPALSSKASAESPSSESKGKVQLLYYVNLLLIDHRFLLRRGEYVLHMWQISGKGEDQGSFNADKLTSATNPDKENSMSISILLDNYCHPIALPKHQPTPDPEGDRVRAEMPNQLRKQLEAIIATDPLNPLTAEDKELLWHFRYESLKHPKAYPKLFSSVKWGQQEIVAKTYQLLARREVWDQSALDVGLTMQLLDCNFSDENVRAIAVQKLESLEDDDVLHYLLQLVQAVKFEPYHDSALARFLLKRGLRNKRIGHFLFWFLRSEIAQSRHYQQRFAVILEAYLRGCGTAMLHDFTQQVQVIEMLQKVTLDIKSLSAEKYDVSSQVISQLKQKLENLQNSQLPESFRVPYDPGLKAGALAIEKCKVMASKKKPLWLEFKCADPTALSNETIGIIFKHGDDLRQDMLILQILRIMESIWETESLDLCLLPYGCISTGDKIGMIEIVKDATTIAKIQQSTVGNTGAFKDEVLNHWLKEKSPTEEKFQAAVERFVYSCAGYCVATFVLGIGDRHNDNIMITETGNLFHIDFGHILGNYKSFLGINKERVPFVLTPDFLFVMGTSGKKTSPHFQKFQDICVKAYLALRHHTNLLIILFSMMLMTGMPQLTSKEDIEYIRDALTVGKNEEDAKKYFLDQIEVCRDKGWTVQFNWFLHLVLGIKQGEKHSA

Row | pIC50 [1] | pIC50 [2] | melting point [°C] | SMILES
1 | > 7.00 | 5.70 to 6.30 | 199 to 200 | COC(=O)CCCOc1ccc2c(c1OC)N=C(/C=C(\O)c1cccnc1)N1CCN=C21 [Example 1-5, Methyl 4-{[5-(2-hydroxy-2-pyridin-3-ylvinyl)-7-methoxy-2,3-dihydroimidazo[1,2-c]quinazolin-8-yl]oxy}butanoate]
2 | > 7.00 | 5.70 to 6.30 | 275 | COc1cc2c(cc1OC)C1=NCCN1C(/C=C(\O)c1cccnc1)=N2 [Example 1-1, (Z)-2-(8,9-Dimethoxy-2,3-dihydroimidazo[1,2-c]quinazolin-5-yl)-1-(3-pyridinyl)ethenol]
3 | 6.30 to 7.00 | 6.30 to 7.00 | 209 | O=C(NC1=Nc2cc(OCCn3cccc3)ccc2C2=NCCN12)c1cccnc1 [Example 2-6, N-{8-[2-(1-pyrrolyl)ethoxy]-2,3-dihydroimidazo[1,2-c]quinazolin-5-yl}nicotinamide]

Row | SMILES | pIC50 [1] | pIC50 [2] | melting point [°C]
4 | COc1c(OCCCC(=O)N2CCOCC2)ccc2c1N=C(/C=C(\O)c1cccnc1)N1CCN=C21 [Example 1-8, 2-[7-Methoxy-8-(4-morpholin-4-yl-4-oxobutoxy)-2,3-dihydroimidazo[1,2-c]quinazolin-5-yl]-1-pyridin-3-ylethylenol] | > 7.00 | 6.30 to 7.00 | 234 to 235

From patent US7511041B2, “Fused azole-pyrimidine derivatives” (Bayer Pharmaceuticals Corporation, priority 2002, dated 2009)
